From patent publication US20120101137A1, “NOVEL THIOPHENECARBOXAMIDE DERIVATIVE AND PHARMACEUTICAL USE THEREOF” (SANWA KAGAKU KENKYUSHO CO., LTD., priority 2009, published 2012)
Where a name gives a salt, the structure may show the parent alone. Read-outs that look alike come from different tables or passages of the source.

Biological target: T1, human glucokinase (Homo sapiens, UniProt P35557)
T1 construct: made in house; host or cells: E. coli
T1 sequence (P35557 16-465): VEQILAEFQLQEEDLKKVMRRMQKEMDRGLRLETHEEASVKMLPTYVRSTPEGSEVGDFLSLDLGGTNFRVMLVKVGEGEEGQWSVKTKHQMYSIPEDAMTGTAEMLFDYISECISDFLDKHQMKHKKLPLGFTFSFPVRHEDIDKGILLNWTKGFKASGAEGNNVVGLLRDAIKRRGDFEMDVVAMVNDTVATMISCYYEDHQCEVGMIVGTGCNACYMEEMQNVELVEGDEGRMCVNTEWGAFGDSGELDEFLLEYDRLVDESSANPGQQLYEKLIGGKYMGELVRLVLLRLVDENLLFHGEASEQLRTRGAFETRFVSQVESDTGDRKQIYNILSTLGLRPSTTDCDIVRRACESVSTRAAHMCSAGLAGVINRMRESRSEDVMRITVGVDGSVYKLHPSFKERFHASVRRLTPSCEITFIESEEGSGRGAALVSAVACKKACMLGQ
Test: Measurement of glucokinase activity (G6PDH-coupled, absorbance at 340 nm)
Assay type: biochemical
Settings: read-out: GK activation effect (%)
Method: To the EcoRI, HindIII site of a pQE-80 expression vector were introduced a DNA fragment in which the same restriction enzyme site had been added to the N-terminal deficiency (1-15 amino acids deficiency)-encoding region of a human GK. E. coli was transformed by using this plasmid to express a human glucokinase, and purification was conducted as follows.
A fungus body that had been collected from 200 ml of an E. coli culture solution was collected and suspended in 20 ml of Extraction buffer A (20 mM HEPES, pH 8.0, 1 mM MgCl2, 150 mM NaCl, 2 mM mercaptoethanol, 0.25 mg/ml lysozyme, […] sodium azide), and the suspension was stood still at room temperature for 5 minutes. 20 ml of Extraction buffer B (1.5 M NaCl, 100 mM CaCl2, 100 mM MgCl2, 0.02 mg/ml DNA catabolic enzyme 1, a protease inhibitor tablet (Complete (registered trademark) 1697498): one tablet per 20 ml of the buffer) was added therero, followed by standing still at room temperature for 5 minutes. The extract liquid was then centrifuged by 15,000 g for 30 minutes at 4° C., and the supernatant was used as an E. coli extract liquid. The E. coli extract liquid was filtered by a 0.45 μm filter and applied to an Ni-NTA agarose 2 mL bed that had been equilibrated with a buffer (20 mM HEPES pH 8.0, 0.5 M NaCl) comprising 20 mM of imidazole. The bed was washed with about 10 ml of a washing buffer and eluted stepwise with buffers (20 mM HEPES pH 8.0, 0.5 M NaCl) each comprising imidazole by from 40 to 500 mM. Each of the column fractions was analyzed by using SDS gel electrophoresis, and the fraction comprising hGK (MW: 52 KDa) was concentrated. The concentrated sample was then passed through a Sephacryl S-200HR (11/60) gel filtration column and eluted with buffer B (20 mM HEPES, pH 8.0, 1 mM MgCl2, 150 mM NaCl, 1 mM DTT). The eluted fraction was analyzed by SDS gel electrophoresis, and the fraction comprising hGK was concentrated. Finally, 50% glycerol was added to the fraction, and the fraction was stored at −20° C.
178 μl of GK assay mix (25 mM Hepes buffer (pH 7.1), 25 mM KCl, 2 mM MgCl2, 1 mM NADP, 1 mM dithiotheitol, 2 unit/mL G6PDH, 5 mM D-glucose, a suitable amount of GK) was added to a UV permeable 96-well plate. 2 μl of the test compound dissolved in DMSO was added thereto, followed by standing still at room temperature for 10 minutes, and 20 μl al of 20 mM ATP was then added thereto to start a reaction. An absorbance at 340 nm was measured by Spectra Max Plus for 5 minutes at intervals of 30 seconds at room temperature, and the compound was evaluated in the reaction at the first 3 minutes.

[1] = test compound at final concentration of 10 μM, 5 mM D-glucose, in comparison with a well that did not comprise the compound

Cc1sc(C2CCCN2C(=O)CNC(N)=O)cc1C(=O)Nc1ncc(F)s1 (single isomer, unassigned; (-)) [Example 10, (−)-2-Methyl-5-[1-(2-ureidoacetyl)pyrrolidin-2-yl]thiophene-3-carboxylic acid (5-fluorothiazol-2-yl)amide]
activation at 10 µM [1]: 600%

Cc1sc(C2CCCN2C(=O)[C@H](C)NC(N)=O)cc1C(=O)Nc1ncc(F)s1 (single isomer, unassigned; (-)) [Example 22]
activation at 10 µM [1]: 613%

Cc1sc([C@@H]2C[C@@H](F)CN2C(=O)CNS(C)(=O)=O)cc1C(=O)Nc1ncc(F)s1 [Example 12, (−)-5-[(2S,4R)-4-Fluoro-1-(2-methanesulfonylaminoacetyl)pyrrolidin-2-yl]-2-methylthiophene-3-carboxylic acid (5-fluorothiazol-2-yl)amide]
activation at 10 µM: 630%

CC(=O)N[C@@H](C)C(=O)N1C[C@H](F)C[C@H]1c1cc(C(=O)Nc2ncc(F)s2)c(C)s1 [Example 23, (−)-5-[(2S,4R)-1-((S)-2-Acetylaminopropionyl)-4-fluoropyrrolidin-2-yl]-2-methylthiophene-3-carboxylic acid (5-fluorothiazol-2-yl)amide]
activation at 10 µM: 641%

Cc1sc([C@@H]2C[C@@H](F)CN2C(=O)CN(C)CC(=O)O)cc1C(=O)Nc1ncc(F)s1 [Example 38, [(2-{(2S,4R)-4-Fluoro-2-[4-(5-fluorothiazol-2-ylcarbamoyl)-5-methylthiophen-2-yl]pyrrolidin-1-yl}-2-oxoethyl)methylamino]acetic acid hydrochloride]
activation at 10 µM [1]: 801%

Cc1sc(C2CCCN2C(=O)CN(C)CCCCC(=O)O)cc1C(=O)Nc1ncc(F)s1 (stereo not drawn) [Example 78, 5-[(2-{2-[4-(5-Fluorothiazol-2-ylcarbamoyl)-5-methylthiophen-2-yl}pyrrolidin-1-yl]-2-oxoethyl)methylamino]pentanoic acid hydrochloride]
activation at 10 µM [1]: 695%

Cc1sc(C2CCCN2C(=O)CN(C)CCCCC(=O)O)cc1C(=O)Nc1ncc(Cl)s1 (stereo not drawn) [Example 79, 5-[(2-{2-[4-(5-Chlorothiazol-2-ylcarbamoyl)-5-methylthiophen-2-yl]pyrrolidin-1-yl}-2-oxoethyl)methylamino]pentanoic acid hydrochloride]
activation at 10 µM [1]: 717%

CCCCCN(CC(=O)O)CC(=O)N1C[C@H](F)C[C@H]1c1cc(C(=O)Nc2ncc(F)s2)c(C)s1 [Example 80, [(2-[(2S,4R)-4-Fluoro-2-[4-(5-fluorothiazol-2-ylcarbamoyl)-5-methylthiophen-2-yl]pyrrolidin-1-yl]-2-oxoethyl)pentylamino]acetic acid]
activation at 10 µM [1]: 752%

CCCCCN(CC(=O)O)CC(=O)N1CCCC1c1cc(C(=O)Nc2ncc(F)s2)c(C)s1 (stereo not drawn) [Example 81, [(2-[2-[4-(5-Fluorothiazol-2-ylcarbamoyl)-5-methylthiophen-2-yl]pyrrolidin-1-yl]-2-oxoethyl)pentylamino]acetic acid]
activation at 10 µM [1]: 787%
